# Numbers after ± are expanded uncertainties.
# Test: xn = mol fraction of the nth substance listed
# Conditions: 298 K, Liquid
structure (smiles),measurement,setting,value
"ClCCCCCCCl [1,6-dichlorohexane] + CC(=O)N(C)C",mass density,"10000 kPa, x2 = 0.4943",1018.9 ± 3.3 kg/m3
same,mass density,"10000 kPa, x2 = 0.6007",1005.2 ± 3.4 kg/m3
same,mass density,"10000 kPa, x2 = 0.7006",991.6 ± 3.5 kg/m3
same,mass density,"10000 kPa, x2 = 0.8012",976.7 ± 3.7 kg/m3
same,mass density,"10000 kPa, x2 = 0.8994",960.6 ± 3.9 kg/m3
same,mass density,"10500 kPa, x2 = 0.1002",1061.7 ± 3 kg/m3
same,mass density,"10500 kPa, x2 = 0.1985",1052.3 ± 3 kg/m3
same,mass density,"10500 kPa, x2 = 0.3002",1041.6 ± 3.1 kg/m3
same,mass density,"10500 kPa, x2 = 0.404",1030.2 ± 3.2 kg/m3
same,mass density,"10500 kPa, x2 = 0.4943",1019.2 ± 3.3 kg/m3
same,mass density,"10500 kPa, x2 = 0.6007",1005.5 ± 3.4 kg/m3
same,mass density,"10500 kPa, x2 = 0.7006",992 ± 3.5 kg/m3
same,mass density,"10500 kPa, x2 = 0.8012",977 ± 3.8 kg/m3
same,mass density,"10500 kPa, x2 = 0.8994",960.9 ± 3.9 kg/m3
same,mass density,"11000 kPa, x2 = 0.1002",1062 ± 3 kg/m3
same,mass density,"11000 kPa, x2 = 0.1985",1052.6 ± 3 kg/m3
same,mass density,"11000 kPa, x2 = 0.3002",1041.9 ± 3.1 kg/m3
same,mass density,"11000 kPa, x2 = 0.404",1030.4 ± 3.2 kg/m3
same,mass density,"11000 kPa, x2 = 0.4943",1019.5 ± 3.3 kg/m3
same,mass density,"11000 kPa, x2 = 0.6007",1005.8 ± 3.4 kg/m3
same,mass density,"11000 kPa, x2 = 0.7006",992.3 ± 3.9 kg/m3
same,mass density,"11000 kPa, x2 = 0.8994",961.2 ± 3.2 kg/m3
same,mass density,"11400 kPa, x2 = 0.8994",961.5 ± 3.9 kg/m3
same,mass density,"11500 kPa, x2 = 0.1002",1062.3 ± 3 kg/m3
same,mass density,"11500 kPa, x2 = 0.1985",1052.9 ± 3 kg/m3
same,mass density,"11500 kPa, x2 = 0.3002",1042.2 ± 3.1 kg/m3
same,mass density,"11500 kPa, x2 = 0.404",1030.7 ± 3.1 kg/m3
same,mass density,"11500 kPa, x2 = 0.4943",1019.9 ± 3.3 kg/m3
same,mass density,"11500 kPa, x2 = 0.6007",1006.1 ± 3.4 kg/m3
same,mass density,"11500 kPa, x2 = 0.7006",992.6 ± 3.5 kg/m3
same,mass density,"11500 kPa, x2 = 0.8012",977.6 ± 3.7 kg/m3
same,mass density,"12000 kPa, x2 = 0.1002",1062.7 ± 3 kg/m3
same,mass density,"12000 kPa, x2 = 0.1985",1053.3 ± 3 kg/m3
same,mass density,"12000 kPa, x2 = 0.3002",1042.5 ± 3.1 kg/m3
same,mass density,"12000 kPa, x2 = 0.404",1031 ± 3.1 kg/m3
same,mass density,"12000 kPa, x2 = 0.4943",1020.2 ± 3.3 kg/m3
same,mass density,"12000 kPa, x2 = 0.6007",1006.5 ± 3.4 kg/m3
same,mass density,"12000 kPa, x2 = 0.7006",992.9 ± 3.5 kg/m3
same,mass density,"12000 kPa, x2 = 0.8012",977.9 ± 3.7 kg/m3
same,mass density,"12000 kPa, x2 = 0.8994",961.8 ± 3.9 kg/m3
same,mass density,"12500 kPa, x2 = 0.1002",1063 ± 3 kg/m3
same,mass density,"12500 kPa, x2 = 0.1985",1053.6 ± 3 kg/m3
same,mass density,"12500 kPa, x2 = 0.3002",1042.9 ± 3.1 kg/m3
same,mass density,"12500 kPa, x2 = 0.404",1031.4 ± 3.2 kg/m3
same,mass density,"12500 kPa, x2 = 0.4943",1020.5 ± 3.3 kg/m3
same,mass density,"12500 kPa, x2 = 0.6007",1006.7 ± 3.4 kg/m3
same,mass density,"12500 kPa, x2 = 0.7006",993.2 ± 3.5 kg/m3
same,mass density,"12500 kPa, x2 = 0.8012",978.2 ± 3.7 kg/m3
same,mass density,"12500 kPa, x2 = 0.8994",962.1 ± 3.9 kg/m3
same,mass density,"13000 kPa, x2 = 0.1002",1063.4 ± 3 kg/m3
same,mass density,"13000 kPa, x2 = 0.1985",1054 ± 3 kg/m3
same,mass density,"13000 kPa, x2 = 0.3002",1043.2 ± 3.1 kg/m3
same,mass density,"13000 kPa, x2 = 0.404",1031.7 ± 3.2 kg/m3
same,mass density,"13000 kPa, x2 = 0.4943",1020.8 ± 3.3 kg/m3
same,mass density,"13000 kPa, x2 = 0.6007",1007 ± 3.4 kg/m3
same,mass density,"13000 kPa, x2 = 0.7006",993.5 ± 3.5 kg/m3
same,mass density,"13000 kPa, x2 = 0.8012",978.5 ± 3.7 kg/m3
same,mass density,"13000 kPa, x2 = 0.8994",962.4 ± 3.9 kg/m3
same,mass density,"13500 kPa, x2 = 0.1002",1063.7 ± 3 kg/m3
same,mass density,"13500 kPa, x2 = 0.1985",1054.3 ± 3.1 kg/m3
same,mass density,"13500 kPa, x2 = 0.3002",1043.5 ± 3.1 kg/m3
same,mass density,"13500 kPa, x2 = 0.404",1032 ± 3.2 kg/m3
same,mass density,"13500 kPa, x2 = 0.4943",1021.1 ± 3.3 kg/m3
same,mass density,"13500 kPa, x2 = 0.6007",1007.4 ± 3.4 kg/m3
same,mass density,"13500 kPa, x2 = 0.7006",993.8 ± 3.5 kg/m3
same,mass density,"13500 kPa, x2 = 0.8012",978.7 ± 3.8 kg/m3
same,mass density,"13500 kPa, x2 = 0.8994",962.6 ± 3.9 kg/m3
same,mass density,"14000 kPa, x2 = 0.1002",1063.9 ± 3 kg/m3
same,mass density,"14000 kPa, x2 = 0.1985",1054.7 ± 3 kg/m3
same,mass density,"14000 kPa, x2 = 0.3002",1043.8 ± 3.1 kg/m3
same,mass density,"14000 kPa, x2 = 0.404",1032.4 ± 3.2 kg/m3
same,mass density,"14000 kPa, x2 = 0.4943",1021.4 ± 3.3 kg/m3
same,mass density,"14000 kPa, x2 = 0.6007",1007.6 ± 3.4 kg/m3
same,mass density,"14000 kPa, x2 = 0.7006",994.1 ± 3.5 kg/m3
same,mass density,"14000 kPa, x2 = 0.8012",979 ± 3.8 kg/m3
same,mass density,"14000 kPa, x2 = 0.8994",963 ± 3.9 kg/m3
same,mass density,"14500 kPa, x2 = 0.1002",1064.3 ± 3 kg/m3
same,mass density,"14500 kPa, x2 = 0.1985",1055 ± 3 kg/m3
same,mass density,"14500 kPa, x2 = 0.3002",1044.2 ± 3.1 kg/m3
same,mass density,"14500 kPa, x2 = 0.404",1032.6 ± 3.2 kg/m3
same,mass density,"14500 kPa, x2 = 0.4943",1021.7 ± 3.3 kg/m3
same,mass density,"14500 kPa, x2 = 0.6007",1008 ± 3.4 kg/m3
same,mass density,"14500 kPa, x2 = 0.7006",994.4 ± 3.5 kg/m3
same,mass density,"14500 kPa, x2 = 0.8012",979.4 ± 3.8 kg/m3
same,mass density,"14500 kPa, x2 = 0.8994",963.2 ± 3.9 kg/m3
same,mass density,"15000 kPa, x2 = 0.1002",1064.6 ± 3 kg/m3
same,mass density,"15000 kPa, x2 = 0.1985",1055.3 ± 3.1 kg/m3
same,mass density,"15000 kPa, x2 = 0.3002",1044.5 ± 3.1 kg/m3
same,mass density,"15000 kPa, x2 = 0.404",1032.9 ± 3.2 kg/m3
same,mass density,"15000 kPa, x2 = 0.4943",1022 ± 3.3 kg/m3
same,mass density,"15000 kPa, x2 = 0.6007",1008.2 ± 3.4 kg/m3
same,mass density,"15000 kPa, x2 = 0.7006",994.7 ± 3.5 kg/m3

# Source: the NIST ThermoML archive (doi:10.1021/je700339f)
